The nature of the experiment: Inhibitory activity against TNF-alpha production in human peripheral blood mononuclear cells(PBMC) using an ELISA assay. Format: functional. In general terms: In an ELISA, binding on a coated surface is turned into a signal by an enzyme label.
Regarding `COc1ccc2c(c1)OC(c1cc(OC)c(OC)c(OC)c1)C(C(C)=O)=C2` (centres undefined), the IC50 (in general, the concentration at which inhibition is half-maximal) is 0.1 µM.

In turn, `COc1ccc2c(c1)OC(c1cc(OC)c(OC)c(OC)c1)C(C=O)=C2` (centres undefined) came in with an IC50 of 0.6 µM. Consider `COc1ccc2c(c1)OC(c1cc(OC)c(OC)c(OC)c1)C(C(=O)NC(C)(C)C)=C2` (centres undefined), for which the IC50 is more than 50 µM. In the case of `CCCC(=O)C1=Cc2ccc(OC)cc2OC1c1cc(OC)c(OC)c(OC)c1` (centres undefined), the IC50 amounted to 4.7 µM. The compound `COc1ccc2c(c1)OC(c1cc(OC)c(OC)c(OC)c1)C(C(=O)OC(C)C)=C2` (centres undefined) registered an IC50 of 12 µM. In turn, `COc1ccc2c(c1)OC(c1cc(OC)c(OC)c(OC)c1)C(C#N)=C2` (centres undefined) came in with an IC50 of 0.6 µM. For `COc1ccc2c(c1)OC(c1cc(OC)c(OC)c(OC)c1)C(/C=N/O)=C2` (centres undefined), the IC50 stood at 4.1 µM.

Compound `COc1ccc2c(c1)OC(c1cc(OC)c(OC)c(OC)c1)C(C(=O)OC(C)(C)C)=C2` (centres undefined) showed an IC50 of 13 µM. Compound `CNC(=O)C1=Cc2ccc(OC)cc2OC1c1cc(OC)c(OC)c(OC)c1` (centres undefined) returned an IC50 of 8.1 µM. Under `COc1ccc2c(c1)OC(c1cc(OC)c(OC)c(OC)c1)C(C(N)=O)=C2` (centres undefined) stands 0.6 µM; under `CCCCNC(=O)C1=Cc2ccc(OC)cc2OC1c1cc(OC)c(OC)c(OC)c1` (centres undefined), 31.3 µM; under `COc1ccc2c(c1)OC(c1cc(OC)c(OC)c(OC)c1)C(C(=O)Nc1ccccc1)=C2` (centres undefined), more than 50 µM. Under `CCOC(=O)C1=Cc2ccc(OC)cc2OC1c1cc(OC)c(OC)c(OC)c1` (centres undefined) stands 7 µM. In turn, `CCNC(=O)C1=Cc2ccc(OC)cc2OC1c1cc(OC)c(OC)c(OC)c1` (centres undefined) yielded an IC50 of 17.9 µM. In turn, `COc1ccc2c(c1)OC(c1cc(OC)c(OC)c(OC)c1)C(C(=O)O)=C2` (centres undefined) came in with an IC50 of more than 50 µM. For `COc1ccc2c(c1)OC(c1cc(OC)c(OC)c(OC)c1)C(C(=O)OCCc1ccccc1)=C2` (centres undefined), the IC50 is more than 50 µM. The same measure for `COc1ccc2c(c1)OC(c1cc(OC)c(OC)c(OC)c1)C(CO)=C2` (centres undefined): 2.4 µM.

Compound `COc1ccc2c(c1)OC(c1cc(OC)c(OC)c(OC)c1)C=C2` (centres undefined) had a half-inhibitory concentration (IC50) of 11.6 µM.

`COc1ccc2c(c1)OC(c1cc(OC)c(OC)c(OC)c1)C(C(=O)NC(C)C)=C2` (centres undefined) gave an IC50 of 41.6 µM. The compound `COc1ccc2c(c1)OC(c1cc(OC)c(OC)c(OC)c1)C(C(=O)N1CCCCC1)=C2` (centres undefined) showed an IC50 of 48 µM. Take `COc1ccc2c(c1)OC(c1cc(OC)c(OC)c(OC)c1)C(C(=O)N(C)C)=C2` (centres undefined): the IC50 was more than 50 µM. For `COC(=O)C1=Cc2ccc(OC)cc2OC1c1cc(OC)c(OC)c(OC)c1` (centres undefined), the IC50 is 2 µM. Consider `CCOCC1=Cc2ccc(OC)cc2OC1c1cc(OC)c(OC)c(OC)c1` (centres undefined), for which the IC50 worked out at 1.1 µM. The same measure for `COc1ccc2c(c1)OC(c1cc(OC)c(OC)c(OC)c1)C(C(=O)N(C)OC)=C2` (centres undefined): 31.1 µM.
